From ChEMBL document CHEMBL1155360, “Structural characteristics of flavanones and flavones from Cudrania tricuspidata for neuraminidase inhibition” (Bioorg Med Chem Lett, 2009) come the findings set out here.

Test [1] can be described thus: (§1) Inhibition of Clostridium welchii neuraminidase. More on the design: species or system Clostridium perfringens.
For the next test, the system named is Clostridium perfringens. The description is as §1.
A short description of test [2]: Noncompetitive inhibition of Clostridium welchii neuraminidase by Dixon plot. Details: species or system Clostridium perfringens.

In general, IC50 refers to the point on the concentration scale where inhibition reaches its midpoint. A lower IC50 goes with greater potency. For the molecule `O=c1cc(-c2ccc(O)cc2)oc2cc(O)cc(O)c12` [APIGENIN], the midpoint of inhibition in test [1], the IC50, lay at 22.1 µM. Also, the inhibition result in the test with Clostridium perfringens was “Dose-dependent effect”.
The term Ki denotes a measure of affinity in units of concentration, obtained from inhibition or displacement. Turning to `CC(C)=CCc1c(-c2ccc(O)cc2O)oc2cc3c(c(O)c2c1=O)C=CC(C)(C)O3` [CUDRAFLAVONE B], in test [2], the Ki came to 10.8 µM. The molecule further showed an IC50 in test [1] of 10.1 µM. Moreover, the inhibition entry in the test on Clostridium perfringens was “Dose-dependent effect”.
The corresponding values for `CC(C)=CCc1cc([C@@H]2CC(=O)c3c(cc(O)c(CC=C(C)C)c3O)O2)c(O)cc1O` are 7.16 µM, 10.7 µM and “Dose-dependent effect”.
In test [1], `O=c1cc(-c2ccc(O)c(O)c2)oc2cc(O)cc(O)c12` [LUTEOLIN] yielded an IC50 of 4.6 µM. Further, in the test on Clostridium perfringens, the inhibition result is “Dose-dependent effect”.
The molecule `CC(C)=CC1Oc2cc(O)ccc2-c2oc3cc4c(c(O)c3c(=O)c21)C=CC(C)(C)O4` (stereo not drawn) [CUDRAFLAVONE A] came in with a Ki in test [2] of 44.4 µM. Besides, inhibition in test [1] was half-maximal at 29 µM (IC50). Also, the inhibition entry with Clostridium perfringens is “Dose-dependent effect”.
On the same counts, the results for `CC(C)(O)CCc1c(O)cc(O)c2c1O[C@H](c1cc3c(cc1O)OC(C)(C)C=C3)CC2=O` are 0.19 µM, 0.38 µM and “Dose-dependent effect”.
On the same counts, the results for `CC(C)=CCc1c(O)cc2c(c1O)C(=O)C[C@@H](c1cc3c(cc1O)OC(C)(C)C=C3)O2` [CUDRAFLAVANONE A] are 2.01 µM, 1.53 µM and “Dose-dependent effect”.
Molecule `O=c1c2cc(O)c(O)cc2oc2cc(O)c([C@@H]3O[C@H](CO)[C@@H](O)[C@H](O)[C@H]3O)c(O)c12` [MANGIFERIN] registered an IC50 in test [1] of 11.2 µM. Besides, the inhibition entry in the test with Clostridium perfringens was “Dose-dependent effect”.
On to `O=C1C[C@@H](c2ccc(O)cc2O)Oc2cc(O)cc(O)c21`, for which the affinity in test [2] corresponds to a Ki of 7.2 µM. Further, half-maximal inhibition in test [1] (IC50) required 8.14 µM. Moreover, the inhibition entry with Clostridium perfringens is “Dose-dependent effect”.
`O=C1C[C@@H](c2ccc(O)c(O)c2)Oc2cc(O)cc(O)c21` [ERIODICTYOL] displayed an IC50 in test [1] of 16 µM. In addition, in the test with Clostridium perfringens, the inhibition entry is “Dose-dependent effect”.
The corresponding values for `O=C1C[C@@H](c2ccc(O)cc2)Oc2cc(O)cc(O)c21` [NARINGENIN] are 57.9 µM and “Dose-dependent effect”.
The corresponding values for `CC1(C)C=Cc2c(cc3oc(-c4ccc(O)cc4O)cc(=O)c3c2O)O1` are 6.01 µM and “Dose-dependent effect”.
With `O=c1cc(-c2ccc(O)cc2O)oc2cc(O)cc(O)c12` [NORARTOCARPETIN], the Ki in test [2] amounted to 1.96 µM. Besides, in test [1], 1.13 µM corresponded to half-maximal inhibition (IC50). The inhibition result with Clostridium perfringens is “Dose-dependent effect”.
